The text below walks through data of EPA's ToxRefDB 2.

The term LOAEL denotes the lowest dose or exposure tested at which an adverse effect was seen. For orientation: NOAEL means the highest dose or exposure tested at which no adverse effect was seen.

Series [1] concerns rabbit. The following applies: Prenatal developmental toxicity study, other, Oral, Gavage/Intubation, dose end: 18 GD.
Series [2] relates to rat. To be noted: Multigenerational reproductive toxicity study, other, Oral, Feed, dose end: 2 generation.
Series [3] relates to rat. The following applies: Subchronic oral toxicity in rodents, sprague dawley, Feed, dose end: 3 month.
Series [4] concerns rat. The following applies: Multigenerational reproductive toxicity study, wistar, Oral, Feed, dose end: 2 generation.
Series [5] deals with rabbit. To be noted: Prenatal developmental toxicity study, new zealand white, Oral, Gavage/Intubation, dose end: 19 GD.
The subject of a further series is hamster. The following applies: Prenatal developmental toxicity study, golden syrian, Oral, Gavage/Intubation, dose end: 15 GD.
Series [6] deals with rat. The following applies: Prenatal developmental toxicity study, wistar, Oral, Gavage/Intubation, dose end: 16 GD.
For series [7], the system named is rabbit. To be noted: Prenatal developmental toxicity study, himalayan, Oral, Gavage/Intubation, dose end: 18 GD.
The subject of series [8] is rat. To be noted: Prenatal developmental toxicity study, other, Oral, Gavage/Intubation, dose end: 15 GD.
Another series deals with mouse. The following applies: Prenatal developmental toxicity study, cd1, Oral, Gavage/Intubation, dose end: 15 GD.
Series [9] concerns rat. The following applies: Prenatal developmental toxicity study, sprague dawley, Oral, Gavage/Intubation, dose end: 15 GD.
Series [10] has as its system rat. To be noted: Prenatal developmental toxicity study, sprague dawley, Inhalation, Whole-Body, dose end: 20 GD.
[11] abbreviates: group: developmental, developmental / developmental malformation / bone / full supernumerary + systemic / in life observation / body weight / fetal weight.
The mark [12] stands for this setting: group: developmental, developmental / developmental malformation / bone / full supernumerary + systemic / in life observation / body weight / fetal weight + ….
The mark [13] stands for this setting: group: maternal, systemic / in life observation / body weight / body weight gain + systemic / in life observation / food consumption / food consumption.
[14] abbreviates: group: maternal, systemic / in life observation / body weight / body weight gain + systemic / in life observation / food consumption / food consumption + ….
Setting [15] is: group: offspring, systemic / in life observation / body weight / offspring (pup) weight.
The mark [16] stands for this setting: group: offspring, systemic / in life observation / body weight / offspring (pup) weight + developmental / developmental malformation / bone / extra ….
[17] abbreviates: group: parental, systemic / pathology microscopic / spleen / hemosiderosis.
The mark [18] stands for this setting: group: parental, systemic / pathology microscopic / spleen / hemosiderosis + systemic / in life observation / body weight / body weight gain + systemic / in ….
[19] abbreviates: group: cholinesterase, cholinesterase / cholinesterase / cholinesterase / cholinesterase (che).
The mark [20] stands for this setting: group: systemic, systemic / hematology / anemia / anemia - hemolytic + systemic / in life observation / body weight / body weight gain + systemic / in life ….
Where [21] appears, read: group: systemic, systemic / hematology / blood clotting / blood clotting - activated partial thromboplastin time + systemic / hematology / blood clotting / ….
The mark [22] stands for this setting: group: offspring, systemic / in life observation / body weight / offspring (pup) weight + systemic / organ weight / spleen / absolute + systemic / organ ….
The mark [23] stands for this setting: group: parental, systemic / organ weight / spleen / absolute.
Setting [24] is: group: parental, systemic / organ weight / spleen / absolute + systemic / in life observation / body weight / body weight gain + systemic / pathology ….
Where [25] appears, read: group: reproductive, reproductive / reproductive performance / estrous cycle / abnormal.
[26] abbreviates: group: developmental, developmental / developmental malformation / brain / hydrocephaly + developmental / developmental malformation / bone / domed head.
Where [27] appears, read: group: maternal, reproductive / reproductive performance / postimplantation loss / postimplantation loss + reproductive / reproductive performance / ….
Setting [28] is: group: developmental, developmental / developmental malformation / bone / [other] + developmental / developmental malformation / bone / absent + developmental / ….
Where [29] appears, read: group: maternal, systemic / in life observation / clinical signs / ataxia + systemic / in life observation / clinical signs / body temperature + systemic / ….
Setting [30] is: group: developmental, developmental / developmental malformation / bone / bent.
Where [31] appears, read: group: maternal, systemic / in life observation / body weight / body weight + systemic / in life observation / body weight / body weight gain + systemic / in….
[32] abbreviates: group: developmental, developmental / developmental malformation / bone / [other] + developmental / developmental malformation / bone / fragmented + developmental….
Where [33] appears, read: group: maternal, systemic / in life observation / mortality / mortality + systemic / in life observation / clinical signs / [other] + systemic / in life ….
Where [34] appears, read: group: developmental, developmental / developmental malformation / bone / [other] + developmental / developmental malformation / bone / discontinuous.
[35] abbreviates: group: developmental, developmental / developmental malformation / bone / [other] + developmental / developmental malformation / bone / discontinuous + ….
Setting [36] is: group: maternal, systemic / in life observation / water consumption / water consumption.
[37] abbreviates: group: maternal, systemic / in life observation / water consumption / water consumption + systemic / in life observation / body weight / body weight gain + ….
Setting [38] is: group: developmental, systemic / in life observation / body weight / fetal weight.
Setting [39] is: group: maternal, systemic / in life observation / water consumption / water consumption + systemic / in life observation / clinical signs / altered breathing….
Setting [40] is: group: developmental, developmental / developmental malformation / bone / fragmented + developmental / developmental malformation / bone / unossified + ….
[41] abbreviates: group: maternal, systemic / in life observation / body weight / body weight gain + systemic / in life observation / mortality / mortality + systemic / ….
Setting [42] is: group: developmental, systemic / in life observation / body weight / fetal weight + developmental / developmental malformation / bone / incomplete ossification.

As for `C#CCN1CC(=O)N(COC(=O)C2C(C=C(C)C)C2(C)C)C1=O` (stereo not given) [Imiprothrin], the LEL amounted to 100 mg/kg/day in the series with rabbit [1] (setting [11]); 100 mg/kg/day in the series on rabbit [1] (setting [14]); 369 mg/kg/day in the series on rat [2] (setting [16]); 144 mg/kg/day in the series with rat [2] (setting [17]); 399 mg/kg/day in the series with rat [3] (setting [19]); 5.9 mg/kg/day in the series with rat [3] (setting [21]). The LOAEL in the series on rabbit [1] (setting [11]) was 100 mg/kg/day; with rabbit [1] (setting [13]) it was 100 mg/kg/day; in the series with rat [2] (setting [16]), 369 mg/kg/day; in the series on rat [2] (setting [17]), 144 mg/kg/day; in the series with rat [3] (setting [19]) it was more than 657 mg/kg/day; with rat [3] (setting [20]) it was 179 mg/kg/day. The NEL with rabbit [1] (setting [12]) was 30 mg/kg/day; in the series with rabbit [1] (setting [14]), 30 mg/kg/day; in the series on rat [2] (setting [15]), 126 mg/kg/day; in the series with rat [2] (setting [18]) it was 14.7 mg/kg/day; with rat [3] (setting [19]) it was 197 mg/kg/day; in the series with rat [3] (setting [21]), less than 5.9 mg/kg/day. In addition, the NOAEL was 30 mg/kg/day with rabbit [1] (setting [12]); 30 mg/kg/day in the series with rabbit [1] (setting [14]); 126 mg/kg/day in the series on rat [2] (setting [15]); 14.7 mg/kg/day in the series on rat [2] (setting [18]); not below 657 mg/kg/day in the series with rat [3] (setting [19]); 5.9 mg/kg/day in the series with rat [3] (setting [20]).

As to `Cc1cc(C)c(C2=C(OC(=O)CC(C)(C)C)C3(CCCC3)OC2=O)c(C)c1` [Spiromesifen], in the series with rat [4] (setting [22]), the LEL was determined as 13.2 mg/kg/day, the LOAEL was determined as 13.2 mg/kg/day, the NEL is 3.3 mg/kg/day and the NOAEL was 3.3 mg/kg/day. In the series with rat [4] (setting [23]), the LEL is 13.2 mg/kg/day and the LOAEL stood at 13.2 mg/kg/day. In the series on rat [4] (setting [24]), the NEL is 3.3 mg/kg/day and the NOAEL worked out at 3.3 mg/kg/day. In the series on rat [4] (setting [25]), this compound yielded an LEL of 18 mg/kg/day, an LOAEL of 18 mg/kg/day, an NEL of 4.6 mg/kg/day and an NOAEL of 4.6 mg/kg/day.

On to `O=c1[nH]c(=O)[nH]c(=O)[nH]1` [Cyanuric acid], for which, in the series with rabbit [5] (group: developmental, developmental / developmental malformation / brain / hydrocephaly), the LOAEL was determined as 500 mg/kg/day. Moreover, in the series with rabbit [5] (setting [26]), the LEL is 500 mg/kg/day, the NEL was 200 mg/kg/day and the NOAEL was found to be 200 mg/kg/day. In addition, in the series on rabbit [5] (setting [27]), the LEL is 500 mg/kg/day, the LOAEL was more than 500 mg/kg/day, the NEL came to 200 mg/kg/day and the NOAEL is not below 500 mg/kg/day.

Take `CC(C)(C#N)O[C@@H]1O[C@H](CO)[C@@H](O)[C@H](O)[C@H]1O` [Linamarin]: in the series on hamster (setting [28]), the LOAEL is more than 140 mg/kg/day, the NEL amounted to 100 mg/kg/day and the NOAEL was not below 140 mg/kg/day. Also, the LEL in the series on hamster (group: developmental, developmental / developmental malformation / bone / absent + developmental / developmental malformation / bone / meningoencephalocele) amounted to 120 mg/kg/day. In the series with hamster (setting [29]), the LEL came to 100 mg/kg/day, the LOAEL is more than 140 mg/kg/day, the NEL came to 70 mg/kg/day and the no observed adverse effect level (NOAEL) is not below 140 mg/kg/day.

Regarding `CCOC(=O)C1=NOC(c2ccccc2)(c2ccccc2)C1` [Isoxadifen-ethyl], the LEL in the series with rat [6] (setting [30]) came out at 120 mg/kg/day; in the series on rat [6] (setting [31]), 1000 mg/kg/day; in the series on rabbit [7] (setting [32]), 500 mg/kg/day; in the series with rabbit [7] (setting [33]), 500 mg/kg/day. The LOAEL in the series with rat [6] (setting [30]) stood at 120 mg/kg/day; in the series with rat [6] (setting [31]), 1000 mg/kg/day; in the series on rabbit [7] (setting [32]) it was 500 mg/kg/day; in the series on rabbit [7] (group: maternal, systemic / in life observation / mortality / mortality), 500 mg/kg/day. Besides, the NEL came to 15 mg/kg/day in the series with rat [6] (setting [30]), 120 mg/kg/day with rat [6] (setting [31]), 50 mg/kg/day with rabbit [7] (setting [32]) and 50 mg/kg/day in the series on rabbit [7] (setting [33]). Further, the NOAEL was determined as 15 mg/kg/day in the series on rat [6] (setting [30]), 120 mg/kg/day with rat [6] (setting [31]), 50 mg/kg/day with rabbit [7] (setting [32]) and 50 mg/kg/day in the series with rabbit [7] (setting [33]).

Regarding `OCCOCCO` [Diethylene glycol], the LEL with rat [8] (setting [34]) was 4470 mg/kg/day; in the series on rat [8] (setting [36]), 4470 mg/kg/day; in the series on mouse (setting [38]), 11200 mg/kg/day; in the series on mouse (setting [36]), 2800 mg/kg/day. In addition, the LOAEL in the series on rat [8] (setting [34]) was found to be 4470 mg/kg/day; in the series with rat [8] (setting [36]), 4470 mg/kg/day; in the series with mouse (setting [38]) it was 11200 mg/kg/day; in the series with mouse (setting [36]), 2800 mg/kg/day. In addition, the NEL in the series on rat [8] (setting [35]) stood at 1120 mg/kg/day; in the series on rat [8] (setting [37]), 1120 mg/kg/day; in the series on mouse (setting [38]) it was 2800 mg/kg/day; in the series with mouse (setting [39]), 559 mg/kg/day. Moreover, the NOAEL stood at 1120 mg/kg/day in the series with rat [8] (setting [35]), 1120 mg/kg/day in the series on rat [8] (setting [37]), 2800 mg/kg/day in the series on mouse (setting [38]) and 559 mg/kg/day in the series on mouse (setting [39]).

As for `[Li+].[O-]Cl` [Lithium hypochlorite], in the series with rat [9] (setting [40]), the LOAEL stood at 500 mg/kg/day, the NEL amounted to 10 mg/kg/day and the NOAEL was determined as 100 mg/kg/day. In addition, the LEL in the series with rat [9] (group: developmental, developmental / developmental malformation / bone / kinked + developmental / developmental malformation / bone / thread-like + developmental…) is 50 mg/kg/day. Also, in the series on rat [9] (setting [41]), the LEL stood at 500 mg/kg/day, the LOAEL stood at 500 mg/kg/day, the NEL was determined as 100 mg/kg/day and the NOAEL is 100 mg/kg/day.

As for `Cc1cc(C)cc(C)c1` [1,3,5-Trimethylbenzene], in the series on rat [10] (setting [38]), the LEL amounted to 600 ppm and the LOAEL was determined as 600 ppm. Moreover, in the series on rat [10] (setting [42]), the NEL worked out at 300 ppm and the NOAEL was found to be 300 ppm. Besides, in the series on rat [10] (setting [13]), the LEL worked out at 300 ppm, the LOAEL stood at 300 ppm, the NEL is 100 ppm and the NOAEL turned out to be 100 ppm.
